Publication PMC8391922, “The Combined Effect of Branching and Elongation on the Bioactivity Profile of Phytocannabinoids. Part I: Thermo-TRPs” (Biomedicines, 2021)
“And” between values parts separate entries of the source, which are not always exact repeats. Equal values may be shown once. Read-outs that look alike come from different tables or passages of the source.

Legend:
[1] = target: T1, rat TRPA1 (Rattus norvegicus, UniProt Q6RI86); design: method as in PMID 21175579; details: cited from earlier work; for TRPA1 Efficacy (%ITC 100 μM): percentage of the effect of 100 μM allylisothiocyanate; for IC50: against agonist AITC 100 μM
T1 construct: expressed in transfected cells; host or cells: HEK-293
T1 sequence (Q6RI86 whole entry): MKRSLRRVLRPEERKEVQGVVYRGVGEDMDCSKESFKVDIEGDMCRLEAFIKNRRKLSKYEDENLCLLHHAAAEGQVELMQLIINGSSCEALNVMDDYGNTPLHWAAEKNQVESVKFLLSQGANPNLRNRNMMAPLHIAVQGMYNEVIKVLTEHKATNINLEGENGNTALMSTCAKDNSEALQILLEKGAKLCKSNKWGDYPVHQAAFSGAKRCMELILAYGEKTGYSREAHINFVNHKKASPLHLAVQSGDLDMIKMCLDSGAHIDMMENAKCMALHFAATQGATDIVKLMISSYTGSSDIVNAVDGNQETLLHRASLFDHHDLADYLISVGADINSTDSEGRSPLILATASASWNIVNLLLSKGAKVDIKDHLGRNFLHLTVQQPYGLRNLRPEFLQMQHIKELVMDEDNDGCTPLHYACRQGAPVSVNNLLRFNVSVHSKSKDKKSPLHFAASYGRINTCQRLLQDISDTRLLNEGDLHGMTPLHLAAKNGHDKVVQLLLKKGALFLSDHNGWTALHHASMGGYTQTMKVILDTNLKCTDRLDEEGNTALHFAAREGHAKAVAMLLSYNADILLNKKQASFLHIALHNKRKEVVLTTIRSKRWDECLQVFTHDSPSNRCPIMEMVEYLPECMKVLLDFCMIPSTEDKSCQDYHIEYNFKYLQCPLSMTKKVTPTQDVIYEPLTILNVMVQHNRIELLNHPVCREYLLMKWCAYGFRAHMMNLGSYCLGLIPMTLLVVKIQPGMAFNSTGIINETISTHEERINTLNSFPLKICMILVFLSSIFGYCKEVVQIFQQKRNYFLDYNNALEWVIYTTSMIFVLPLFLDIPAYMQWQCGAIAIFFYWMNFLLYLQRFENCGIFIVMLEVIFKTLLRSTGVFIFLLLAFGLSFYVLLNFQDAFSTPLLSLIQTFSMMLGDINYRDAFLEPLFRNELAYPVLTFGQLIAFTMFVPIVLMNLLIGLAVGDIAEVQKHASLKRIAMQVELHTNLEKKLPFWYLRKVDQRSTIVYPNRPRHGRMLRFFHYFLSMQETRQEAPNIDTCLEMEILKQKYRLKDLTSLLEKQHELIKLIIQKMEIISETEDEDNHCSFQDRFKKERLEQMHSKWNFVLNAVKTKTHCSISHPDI

[2] = target: T2, human TRPV1 (Homo sapiens, UniProt Q8NER1); design: method as in PMID 21175579
T2 construct: expressed in transfected cells; host or cells: HEK-293
T2 sequence (Q8NER1 whole entry): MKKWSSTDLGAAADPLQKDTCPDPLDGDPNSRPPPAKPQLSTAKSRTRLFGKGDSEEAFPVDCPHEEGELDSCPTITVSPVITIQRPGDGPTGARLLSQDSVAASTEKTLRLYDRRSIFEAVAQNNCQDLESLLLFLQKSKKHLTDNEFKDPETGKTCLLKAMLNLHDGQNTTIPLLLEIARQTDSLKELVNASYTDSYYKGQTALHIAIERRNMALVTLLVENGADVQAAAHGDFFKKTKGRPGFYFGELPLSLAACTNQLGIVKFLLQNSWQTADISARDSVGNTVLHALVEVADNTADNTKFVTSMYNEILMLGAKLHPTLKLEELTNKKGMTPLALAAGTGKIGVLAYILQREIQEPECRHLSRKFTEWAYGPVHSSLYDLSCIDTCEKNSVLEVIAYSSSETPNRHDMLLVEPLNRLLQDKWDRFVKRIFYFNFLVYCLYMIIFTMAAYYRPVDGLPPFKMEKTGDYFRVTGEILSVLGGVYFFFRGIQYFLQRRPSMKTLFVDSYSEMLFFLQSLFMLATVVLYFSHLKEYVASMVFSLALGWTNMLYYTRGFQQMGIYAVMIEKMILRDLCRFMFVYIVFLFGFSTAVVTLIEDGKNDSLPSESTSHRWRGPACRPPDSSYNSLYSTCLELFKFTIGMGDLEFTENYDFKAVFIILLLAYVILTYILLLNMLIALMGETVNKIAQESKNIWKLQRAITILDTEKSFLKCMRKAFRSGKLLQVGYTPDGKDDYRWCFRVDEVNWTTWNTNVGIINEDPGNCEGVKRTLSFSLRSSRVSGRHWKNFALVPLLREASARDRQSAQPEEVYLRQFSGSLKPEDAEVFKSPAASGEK

[3] = target: T3, rat TRPV2 (Rattus norvegicus, UniProt Q9WUD2); design: method as in PMID 21175579, PMID 21726418; details: cited from earlier work; for TRPV2 Efficacy (% IM 4 μM): percentage of the response to ionomycin 4 μM
T3 construct: expressed in transfected cells; host or cells: HEK-293
T3 sequence (Q9WUD2 1-761): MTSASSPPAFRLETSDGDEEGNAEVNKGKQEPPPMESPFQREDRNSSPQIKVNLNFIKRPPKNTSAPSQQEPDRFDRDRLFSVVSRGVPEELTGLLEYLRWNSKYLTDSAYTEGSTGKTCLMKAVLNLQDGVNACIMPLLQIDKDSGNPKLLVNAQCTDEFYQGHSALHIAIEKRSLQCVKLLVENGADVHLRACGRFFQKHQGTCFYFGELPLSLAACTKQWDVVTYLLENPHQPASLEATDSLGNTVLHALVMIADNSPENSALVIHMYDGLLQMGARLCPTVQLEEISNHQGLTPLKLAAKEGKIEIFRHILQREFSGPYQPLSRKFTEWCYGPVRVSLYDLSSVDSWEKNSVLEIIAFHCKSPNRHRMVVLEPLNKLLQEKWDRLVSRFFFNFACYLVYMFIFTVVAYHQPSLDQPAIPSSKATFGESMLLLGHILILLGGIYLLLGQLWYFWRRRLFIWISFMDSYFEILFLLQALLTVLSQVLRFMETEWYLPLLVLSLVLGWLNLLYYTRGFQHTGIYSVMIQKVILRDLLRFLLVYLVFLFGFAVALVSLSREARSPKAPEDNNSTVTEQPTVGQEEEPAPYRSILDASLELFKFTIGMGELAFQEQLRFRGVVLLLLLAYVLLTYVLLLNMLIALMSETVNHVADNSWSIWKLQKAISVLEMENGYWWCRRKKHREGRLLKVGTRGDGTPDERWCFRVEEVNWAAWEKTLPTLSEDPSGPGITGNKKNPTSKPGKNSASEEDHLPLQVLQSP

[4] = target: T4, rat TRPV3 (Rattus norvegicus, UniProt Q4QYD9); design: method as in PMID 21175579, PMID 21726418
T4 construct: expressed in transfected cells; host or cells: HEK-293
T4 sequence (Q4QYD9 1-791): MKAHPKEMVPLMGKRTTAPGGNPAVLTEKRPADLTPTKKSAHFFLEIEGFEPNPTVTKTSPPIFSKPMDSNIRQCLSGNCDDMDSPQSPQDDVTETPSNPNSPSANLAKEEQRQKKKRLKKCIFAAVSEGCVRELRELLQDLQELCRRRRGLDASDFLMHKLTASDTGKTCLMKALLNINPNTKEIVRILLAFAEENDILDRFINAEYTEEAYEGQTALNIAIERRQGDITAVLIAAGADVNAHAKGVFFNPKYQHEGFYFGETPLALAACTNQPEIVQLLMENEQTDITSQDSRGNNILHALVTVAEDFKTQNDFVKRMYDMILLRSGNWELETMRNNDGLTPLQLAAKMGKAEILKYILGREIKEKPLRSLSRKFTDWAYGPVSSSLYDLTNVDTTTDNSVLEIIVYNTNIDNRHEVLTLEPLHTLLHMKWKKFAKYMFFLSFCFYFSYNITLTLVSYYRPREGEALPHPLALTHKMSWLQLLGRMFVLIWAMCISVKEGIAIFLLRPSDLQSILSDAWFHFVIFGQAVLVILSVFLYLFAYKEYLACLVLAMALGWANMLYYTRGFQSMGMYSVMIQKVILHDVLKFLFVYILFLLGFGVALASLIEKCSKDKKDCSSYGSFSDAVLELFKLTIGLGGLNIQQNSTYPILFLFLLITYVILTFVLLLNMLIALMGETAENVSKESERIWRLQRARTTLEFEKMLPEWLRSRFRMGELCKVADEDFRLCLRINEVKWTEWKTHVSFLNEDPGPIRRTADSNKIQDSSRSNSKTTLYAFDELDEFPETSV

[5] = target: T5, rat TRPV4 (Rattus norvegicus, UniProt Q9ERZ8); design: method as in PMID 21175579, PMID 21726418
T5 construct: expressed in transfected cells; host or cells: HEK-293
T5 sequence (Q9ERZ8 whole entry): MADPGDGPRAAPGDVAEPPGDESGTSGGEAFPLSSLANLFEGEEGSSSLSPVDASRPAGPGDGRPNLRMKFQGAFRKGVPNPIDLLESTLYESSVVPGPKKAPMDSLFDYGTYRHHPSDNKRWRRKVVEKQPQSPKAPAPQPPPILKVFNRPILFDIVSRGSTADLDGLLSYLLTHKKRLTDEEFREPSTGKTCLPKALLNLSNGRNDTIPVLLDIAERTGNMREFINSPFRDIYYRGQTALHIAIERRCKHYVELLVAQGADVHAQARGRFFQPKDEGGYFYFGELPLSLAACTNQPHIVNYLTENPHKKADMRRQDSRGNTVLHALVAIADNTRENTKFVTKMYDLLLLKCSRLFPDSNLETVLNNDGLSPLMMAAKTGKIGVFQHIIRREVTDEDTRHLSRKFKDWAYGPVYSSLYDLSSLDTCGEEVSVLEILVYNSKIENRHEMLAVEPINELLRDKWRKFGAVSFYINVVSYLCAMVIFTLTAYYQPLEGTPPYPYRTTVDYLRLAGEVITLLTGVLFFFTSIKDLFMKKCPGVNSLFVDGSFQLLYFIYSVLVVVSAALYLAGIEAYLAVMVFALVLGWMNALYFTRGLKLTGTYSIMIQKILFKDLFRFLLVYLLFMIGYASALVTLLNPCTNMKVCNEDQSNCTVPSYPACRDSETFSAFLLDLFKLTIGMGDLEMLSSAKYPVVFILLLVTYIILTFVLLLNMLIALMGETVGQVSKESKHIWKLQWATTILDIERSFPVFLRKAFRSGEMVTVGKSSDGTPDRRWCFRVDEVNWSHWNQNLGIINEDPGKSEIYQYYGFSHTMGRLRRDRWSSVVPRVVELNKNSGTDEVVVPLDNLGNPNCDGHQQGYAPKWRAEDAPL

[6] = target: T6, rat TRPM8 (Rattus norvegicus, UniProt Q8R455); design: method as in PMID 21175579
T6 construct: expressed in transfected cells; host or cells: HEK-293
T6 sequence (Q8R455 whole entry): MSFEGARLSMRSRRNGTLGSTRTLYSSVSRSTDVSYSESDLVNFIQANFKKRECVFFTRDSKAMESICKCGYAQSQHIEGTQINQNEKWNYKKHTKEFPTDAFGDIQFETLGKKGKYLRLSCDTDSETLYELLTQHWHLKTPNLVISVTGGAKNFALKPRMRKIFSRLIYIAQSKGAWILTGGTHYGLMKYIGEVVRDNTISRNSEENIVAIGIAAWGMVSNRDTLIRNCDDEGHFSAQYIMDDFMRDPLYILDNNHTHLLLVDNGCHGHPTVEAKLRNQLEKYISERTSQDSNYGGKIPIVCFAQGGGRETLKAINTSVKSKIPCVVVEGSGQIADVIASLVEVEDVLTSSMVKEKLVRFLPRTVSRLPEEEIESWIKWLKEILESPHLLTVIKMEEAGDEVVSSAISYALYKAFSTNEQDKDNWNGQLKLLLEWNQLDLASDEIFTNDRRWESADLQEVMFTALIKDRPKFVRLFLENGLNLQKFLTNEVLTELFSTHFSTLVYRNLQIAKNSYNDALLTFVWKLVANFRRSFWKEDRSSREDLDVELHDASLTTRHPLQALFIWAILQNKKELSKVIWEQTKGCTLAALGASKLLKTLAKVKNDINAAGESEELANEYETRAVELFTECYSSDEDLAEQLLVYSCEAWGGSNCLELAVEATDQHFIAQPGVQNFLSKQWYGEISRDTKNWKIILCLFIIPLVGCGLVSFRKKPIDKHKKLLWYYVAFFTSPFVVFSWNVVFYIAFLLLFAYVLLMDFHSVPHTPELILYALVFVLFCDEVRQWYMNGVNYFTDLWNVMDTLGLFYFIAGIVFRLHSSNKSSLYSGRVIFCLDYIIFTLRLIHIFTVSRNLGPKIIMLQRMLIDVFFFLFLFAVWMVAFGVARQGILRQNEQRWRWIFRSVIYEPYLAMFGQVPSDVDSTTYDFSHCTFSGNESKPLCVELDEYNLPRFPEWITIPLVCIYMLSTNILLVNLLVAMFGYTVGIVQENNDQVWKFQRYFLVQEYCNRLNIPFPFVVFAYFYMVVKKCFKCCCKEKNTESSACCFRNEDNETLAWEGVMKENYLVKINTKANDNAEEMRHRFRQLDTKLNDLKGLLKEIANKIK

[7] = target: T1, rat TRPA1; assay: TRPA1-mediated elevation of intracellular Ca2+ (Fluo-4) in transfected HEK-293 cells; assay type: cell-based; details: for TRPA1 Efficacy (%ITC 100 μM): percentage of the effect of 100 μM allylisothiocyanate on [Ca2+]i, HEK-293
Experimental: (§1) Assays of rat TRPA1, TRPV2, TRPV3, TRPV4, and TRPM8 or human TRPV1 mediated elevation of intracellular Ca ^2+ in transfected HEK-293 cells were performed with a continuous monitoring of [Ca ^2+]i during the experiments. […] Cell fluorescence before and after the addition of various concentrations of test compounds was measured, normalizing the effects against the response to ionomycin (IM, 4 μM). The values of the effect on [Ca^2+]i in HEK-293 cells not transfected were used as baseline and subtracted from the values obtained from transfected cells. For TRPA1, agonist efficacy was expressed as a percentage of the effect on [Ca ^2+]i observed with 100 μM allylisothiocyanate. […] In the TRPV3 assay, TRPV3-expressing HEK293 cells were first sensitized with the structurally unrelated agonist 2-aminoethoxydiphenyl borate (100 μM). Antagonist/desensitizing behavior is evaluated against the agonist of the TRP analyzed by adding the compounds directly in the quartz cuvette 5 min before stimulation of cells with the agonist. […] Dose-response curve fitting (sigmoidal dose-response variable slope) and parameter estimation were performed with Graph-Pad Prism8 (GraphPad Software Inc., San Diego, CA, USA). All determinations were performed at least in triplicate.

[8] = target: T2, human TRPV1; assay: TRPV1-mediated elevation of intracellular Ca2+ (Fluo-4) in transfected HEK-293 cells; assay type: cell-based; details: for TRPV1 Efficacy (% IM 4 μM): percentage of the response to ionomycin 4 μM, HEK-293
Experimental: as §1

[9] = target: T6, rat TRPM8; assay: TRPM8 antagonism of icilin-induced intracellular Ca2+ elevation (Fluo-4) in transfected HEK-293 cells; assay type: cell-based; details: IC50 TRPM8, antagonist; compound added 5 min before agonist icilin 0.25 μM
Experimental: as §1

[10] = target: T3, rat TRPV2; assay: TRPV2-mediated elevation of intracellular Ca2+ (Fluo-4) in transfected HEK-293 cells; assay type: cell-based
Experimental: as §1

[11] = target: T5, rat TRPV4; assay: TRPV4-mediated elevation of intracellular Ca2+ (Fluo-4) in transfected HEK-293 cells; assay type: cell-based
Experimental: as §1

[12] = against agonist capsaicin 0.1 μM; cited from earlier work
[13] = percentage of the response to ionomycin 4 μM; cited from earlier work
[14] = read-out: IC50 TRPV1; against agonist capsaicin 0.1 μM; cited from earlier work
[15] = read-out: TRPV3 Potency EC50; half-maximal increase in [Ca2+]i; cited from earlier work
[16] = read-out: TRPV4 Potency EC50; half-maximal increase in [Ca2+]i; cited from earlier work
[17] = percentage of the response to ionomycin 4 μM, HEK-293

C=C(C)[C@@H]1CCC(C)=C[C@H]1c1c(O)cc(CCCCC)cc1O [1a, cannabidiol]
TRPA1 Efficacy (%ITC 100 μM) [1]: 115.9 ± 4.6%
IC50 ([1]; read-out: IC50 TRPA1): 0.16 µM
IC50 TRPV1 [2, 12]: sub/low micromolar range
TRPV1 Efficacy (% IM 4 μM) [2, 13]: 44.7 ± 0.02%
IC50 [2, 14]: 0.6 µM
TRPV2 Efficacy (% IM 4 μM) [3]: 40.5 ± 1.6%
IC50 ([3]; read-out: IC50 TRPV2, against agonist LPC 3 μM): 4.5 µM
TRPV3 Efficacy (% IM 4 μM) [4, 13]: 50.1 ± 4.8%
IC50 ([4]; read-out: IC50 TRPV3; against agonist carvacrol 1 mM; cited from earlier work): 0.9 µM
EC50 [4, 15]: 3.7 µM
TRPV4 Efficacy (% IM 4 μM) [5, 13]: 16.7 ± 1.0%
IC50 ([5]; read-out: IC50 TRPV4; against agonist 4αPDD 1 μM; cited from earlier work): 1.1 µM
EC50 [5, 16]: 0.8 µM

CCCCCc1cc(O)c2c(c1)OC(C)(C)[C@@H]1CC=C(C)C[C@@H]21 [6a, Δ^8-tetrahydrocannabinol]
TRPA1 Efficacy (%ITC 100 μM) [1]: 117.0 ± 12.0%
EC50 ([1]; read-out: TRPA1 Potency EC50, half-maximal increase in [Ca2+]i): 0.23 µM
TRPV1 Efficacy (% IM 4 μM) [2, 13]: < 10%
IC50 ([6]; read-out: IC50 TRPM8; against agonist icilin 0.25 μM; cited from earlier work): 0.16 µM
TRPV2 Efficacy (% IM 4 μM) [3]: 53.0 ± 1.4% and 39.9 ± 2.1%
IC50 ([3]; read-out: IC50 TRPV2, against agonist CBD 2 μM): 0.8 µM
TRPV3 Efficacy (% IM 4 μM) [4, 13]: 18.2 ± 1.0% and 13.1 ± 2.4%
EC50 [4, 15]: 9.5 µM and 5.3 µM
TRPV4 Efficacy (% IM 4 μM) [5, 13]: <10 <10% and 15.3 ± 1.5%
EC50 [5, 16]: 16.1 ± 4.5 µM

CCCCCCC(C)(C)c1cc(O)c2c(c1)OC(C)(C)[C@@H]1CC=C(C)C[C@@H]21 [6b, Depentyl-α,α-dimethylheptyl-Δ^8-tetrahydrocannabinol]
EC50 [7]: 4.8 ± 1.1 µM
IC50 [7]: 6 ± 0.9 µM
TRPA1 Efficacy (%ITC 100 μM) [7]: 124.2 ± 4.0%
EC50 [8]: > 100 µM
IC50 [8]: > 100 µM
TRPV1 Efficacy (% IM 4 μM) [8]: 15.3%
IC50 [9]: 39.9 ± 6.9 µM
EC50 [10]: 0.25 ± 0.03 µM
IC50 ([10]; IC50 TRPV2, antagonist/desensitizing, compound added 5 min before agonist CBD 2 μM): 45.8 µM and > 50 µM
TRPV2 Efficacy (% IM 4 μM) [10, 17]: < 10% and 10.5 ± 0.02%
EC50 [11]: 16.1 ± 21.6 µM
IC50 [11]: > 100 µM
TRPV4 Efficacy (% IM 4 μM) [11, 17]: <10 <10% and 12.1 ± 0.2%

CCCCCc1cc(O)c(C/C=C(\C)CCC=C(C)C)c(O)c1 [7a, cannabigerol]
TRPA1 Efficacy (%ITC 100 μM) [1]: 99.9 ± 1.1%
IC50 TRPV1 [2, 12]: sub/low micromolar range
TRPV1 Efficacy (% IM 4 μM) [2, 13]: 33.8 ± 2.3%
TRPV2 Efficacy (% IM 4 μM) [3]: 73.6 ± 1.2%
IC50 ([4]; against agonist thymol 100 μM; read-out: IC50 TRPV3; cited from earlier work): > 50 µM
EC50 ([4]; half-maximal increase in [Ca2+]i; read-out: TRPV3 Potency EC50 (converted); cited from earlier work): 1 µM
TRPV3 Efficacy (% IM 4 μM) [4, 13]: 18.5 ± 0.7%
TRPV4 Efficacy (% IM 4 μM) [5, 13]: 23.7 ± 1.8%
IC50 ([5]; read-out: IC50 TRPV4; against agonist GSK1016790A 10 nM; cited from earlier work): 1.3 µM
EC50 [5, 16]: 5.1 µM

CCCCCc1cc(O)c2c(c1)OC(C)(CCC=C(C)C)C=C2 (stereo not drawn) [8a, cannabichromene]
IC50 ([1]; read-out: IC50 TRPA1 (converted)): 0.37 µM
TRPA1 Efficacy (%ITC 100 μM) [1]: 119.4 ± 3.1%
IC50 ([2]; against agonist capsaicin 0.1 μM; read-out: IC50 TRPV1; cited from earlier work): > 50 µM
TRPV1 Efficacy (% IM 4 μM) [2, 13]: < 10%
IC50 ([6]; against agonist icilin 0.25 μM; read-out: IC50 TRPM8; cited from earlier work): 40.7 µM
IC50 ([3]; against agonist CBD 2 μM, read-out: IC50 TRPV2 (converted)): 6.5 µM
TRPV2 Efficacy (% IM 4 μM) [3]: < 10%
TRPV3 Efficacy (% IM 4 μM) [4, 13]: 20.2 ± 0.4%
IC50 ([4]; read-out: IC50 TRPV3; against agonist thymol 100 μM; cited from earlier work): > 100 µM
EC50 [4, 15]: 1.9 µM
IC50 ([5]; against agonist GSK1016790A 10 nM; read-out: IC50 TRPV4; cited from earlier work): 9.9 µM
EC50 ([5]; half-maximal increase in [Ca2+]i; read-out: TRPV4 Potency EC50; cited from earlier work): 0.6 µM
TRPV4 Efficacy (% IM 4 μM) [5, 13]: 22.9 ± 1.2%

CCCCCc1cc(O)c2c(c1)OC(C)(C)c1ccc(C)cc1-2 [9a, cannabinol]
TRPA1 Efficacy (%ITC 100 μM) [1]: 83.3 ± 12.0%
IC50 ([1]; read-out: IC50 TRPA1): 0.4 µM
TRPV1 Efficacy (% IM 4 μM) [2, 13]: <10 <10%
IC50 [2, 14]: > 50 µM

CCCCCCC(C)(C)c1cc(O)c2c(c1)OC(C)(C)c1ccc(C)cc1-2 [9b, Depentyl-α,α-dimethylheptyl-cannabinol]
EC50 [7]: 2.1 ± 0.9 µM
IC50 [7]: 3.2 ± 0.6 µM
TRPA1 Efficacy (%ITC 100 μM) [7]: 132.3 ± 7.9%
IC50 [8]: > 100 µM
TRPV1 Efficacy (% IM 4 μM) [8]: <10 <10%
IC50 [9]: 0.98 ± 0.12 µM
